# Laboratory results taken from publication PMC7724679, “Identification of Repurposable Drugs and Adverse Drug Reactions for Various Courses of COVID-19 Based on Single-Cell RNA Sequencing Data” (ArXiv, 2020).
# Assays:
# Assay type in all cases: cell-based
# [1] = test system: Influenza A virus (IAV, Puerto Rico/8/1934(H1N1)); experiment: Antiviral assay, IAV viral RNA in supernatant by RT-qPCR, Calu-3 cells; conditions: for IC50: read-out: IC50, antiviral activity against IAV
# [2] = test system: Influenza A virus (IAV, Puerto Rico/8/1934(H1N1)); experiment: Antiviral assay, IAV viral RNA in supernatant by RT-qPCR, Vero E6 cells; conditions: for IC50: read-out: IC50, antiviral activity against IAV
# Calu-3 cells = experiment: Drug-induced cytotoxicity, CCK-8, Calu-3 cells; conditions: 24 h
# Experimental: (§1) The drug-induced cytotoxicity of the test drugs (tyrphostin-AG-1478 and brefeldin-a) on Calu-3 and Vero E6 cells was determined by a cell counting kit 8 (CCK-8, APExBIO). Cells were cultured overnight in 96-well cell-culture Petri dishes at a density of 1 × 10^4 cells/well. A 10 mM stock of drug was serially diluted in 100% DMSO to obtain a 10-point dilution series. Plates were cultured with fresh drug-containing medium at 37°C for 24 h. The DMSO concentration remained constant under all conditions at 0.05%. The absorbance of each well was determined by using a 96-well multiscanner. After subtracting background absorption, the results were expressed as a percentage of viability relative to that of control cultures that received no drug. Drug concentrations that inhibited cell viability by 50% (IC50) were determined by using GraphPad Prism 8 software.
# Vero E6 cells = experiment: Drug-induced cytotoxicity, CCK-8, Vero E6 cells; conditions: 24 h
# Experimental: as §1
# [3] = test system: mRNA levels of MX1, ISG15, IFNB1, ACE2; experiment: Cellular mRNA levels by qPCR in IAV-infected Calu-3 cells; conditions: IAV-infected Calu-3 cells (MOI of 1), 0 to 10 μM
structure (smiles),measurement,setting,value
C[C@H]1CCC/C=C/[C@@H]2C[C@H](O)C[C@H]2[C@H](O)/C=C/C(=O)O1 [Brefeldin-a],IAV viral RNA levels in cell culture supernatant,[1],reduced IAV viral RNA levels dose dependently
same,IC50,"[1]; Influenza A virus, H1N1 / PR8, Calu-3",59 nM
same,IAV viral RNA levels in cell culture supernatant,[2],reduced IAV viral RNA levels dose dependently
same,IC50,"[2]; Influenza A virus, H1N1 / PR8, Vero C1008",246 nM
same,cytotoxicity (cell viability),Calu-3 cells,Neither compound caused significant cytotoxicity
same,cytotoxicity (cell viability),Vero E6 cells,slightly reduced viability
same,ACE2 mRNA level,[3],significantly reduced
same,IFNβ (IFNB1) mRNA level,[3],significantly reduced
same,ISG15 mRNA level,[3],significantly reduced
same,MX1 mRNA level,[3],significantly reduced
COc1cc2ncnc(Nc3cccc(Cl)c3)c2cc1OC [Tyrphostin-AG-1478],IAV viral RNA levels in cell culture supernatant,[1],reduced IAV viral RNA levels dose dependently
same,IC50,[1],43 nM
same,IAV viral RNA levels in cell culture supernatant,[2],reduced IAV viral RNA levels dose dependently
same,IC50,[2],53 nM
same,cytotoxicity (cell viability),Calu-3 cells,Neither compound caused significant cytotoxicity
same,cytotoxicity (cell viability),Vero E6 cells,Neither compound caused significant cytotoxicity
same,ACE2 mRNA level,[3],increased
same,IFNβ (IFNB1) mRNA level,[3],elevated
same,ISG15 mRNA level,[3],elevated
same,MX1 mRNA level,[3],elevated
